Data: patent US12258345B1, “Pyrrolo[3,2-c]isoquinoline-2,3-dione compounds as CK2 inhibitors” (KING FAISAL UNIVERSITY, priority 2023, dated 2025)

Assays:
PC3 (prostate) = assay: MTT in vitro cytotoxic activity assay, PC3; type: cell-based; details: Homo sapiens, 96 h incubation, read-out: Cytotoxicity activity, PC3 (prostate)
Experimental: (§1) Compounds 1-16 were screened for their in vitro cytotoxic behavior using a 3-(4,5-dimethyl-thiazol-2-yl)-2,5-diphenyltetrazolium bromide (MTT) assay against selected cancer human cell lines consisting of PC3 (prostate), HCT116 (colon), A375 (melanoma), H1299 (lung), MIAPaCa-2 (pancreas), HL60 (leukemia), MCF7 (breast), MDA-MB-231 (breast) (T. Mosmann, J. Immunol. Meth., 1983, 65, 55-63). The cells were cultured at 37° C. in RMPI1640 medium supplemented with 10% fetal bovine serum, 50 IU/mL penicillin, and 50 μg/mL streptomycin in a 5% CO2 incubator. All cells were sub-cultured 3 times/week by trypsinisation. Viable cells were seeded and allowed to adhere for 12 h before a test drug was added in 96-well plates at an initial density of 1.0×10^5 cells/mL. Tumor cell lines were separately exposed to various concentrations of the tested compounds followed by incubation at a temperature of 37° C. during 96 h inside a medium of fresh RMPI 1640. Cells were subsequently incubated at 37° C. using MTT at 0.5 mg/mL for 4 hours. After removal of supernatant, formazan crystals were dissolved in isopropanol and the optical density was measured at 570 nm. CX-4945 was used as a positive control.

[1] = molecular target: T1, recombinant human CK2 (RRBB-holoenzyme) (Homo sapiens, UniProt P68400); assay: CK2 Kinase Assay (33P-ATP, substrate peptide RRRDDDSDDD); type: biochemical; details: final ATP concentration 15 μM, 10 min at 30° C.; read-out: protein kinase CK2 activity IC50
T1 construct: purchased Millipore
T1 sequence (P68400 whole entry): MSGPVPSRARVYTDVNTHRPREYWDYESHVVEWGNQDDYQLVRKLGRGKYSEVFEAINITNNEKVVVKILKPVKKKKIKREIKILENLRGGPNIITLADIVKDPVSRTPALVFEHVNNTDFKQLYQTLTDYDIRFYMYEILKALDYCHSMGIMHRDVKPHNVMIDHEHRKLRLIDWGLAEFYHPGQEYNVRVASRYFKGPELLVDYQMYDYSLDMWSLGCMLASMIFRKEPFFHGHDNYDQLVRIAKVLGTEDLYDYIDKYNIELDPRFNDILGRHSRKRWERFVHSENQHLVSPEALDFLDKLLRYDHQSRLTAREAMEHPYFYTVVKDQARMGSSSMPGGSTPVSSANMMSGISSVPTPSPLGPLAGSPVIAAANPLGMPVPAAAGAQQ
T1 sequence (P67870 whole entry partner): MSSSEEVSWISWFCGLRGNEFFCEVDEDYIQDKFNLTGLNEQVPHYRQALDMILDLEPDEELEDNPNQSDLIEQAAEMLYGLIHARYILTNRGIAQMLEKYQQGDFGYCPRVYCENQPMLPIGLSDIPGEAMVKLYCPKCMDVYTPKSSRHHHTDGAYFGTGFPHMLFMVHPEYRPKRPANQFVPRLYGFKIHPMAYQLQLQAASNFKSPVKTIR
Experimental: CK2 Kinase Assay was conducted using the previously described protocol (Pierre F. et al; J. Med. Chem. 2011, 54, 635-654). The tested compounds in aqueous solution were added at a volume of 10 μL to a reaction mixture comprising 10 μL of assay dilution buffer (ADB; 20 mM MOPS, pH 7.2, 25 mM β-glycerol phosphate, 5 mM EGTA, 1 mM sodium orthovanadate, and 1 mM dithiothreitol), 10 μL of substrate peptide (RRRDDDSDDD, dissolved in ADB at a concentration of 1 mM), 10 μL of recombinant human CK2 (RRBB-holoenzyme, 25 ng dissolved in ADB; Millipore). Reactions were initiated by the addition of 10 μL of ATP solution (90% 75 mMMgCl2, 75 μM ATP (final ATP concentration: 15 μM) dissolved in ADB; 10% [γ-33P] ATP (stock 1 mCi/100 μL; 3000 Ci/mmol (Perkin-Elmer) and maintained for 10 min at 30° C. The reactions were quenched with 100 μL of 0.75% phosphoric acid and then transferred to and filtered through a phosphor cellulose filter plate (Millipore). After washing each well five times with 0.75% phosphoric acid, the plate was dried under vacuum for 5 min and, following the addition of 15 μL of scintillation fluid to each well, the residual radioactivity was measured using a Wallac […] counter. The IC50 values were derived from eight concentrations of test inhibitors.

[2] = test system: various human cancer cell lines; assay: MTT in vitro cytotoxic activity assay, panel of human cancer cell lines; type: cell-based; details: MCF7, MDA-MB-231, H1299, PC3, HCT116, A375, MIAPaCa-2, HL60
Experimental: as §1

MIAPaCa-2 (pancreas) = assay: MTT in vitro cytotoxic activity assay, MIAPaCa-2; type: cell-based; details: Homo sapiens, MIA PaCa-2, 96 h incubation, read-out: Cytotoxicity activity, MIAPaCa-2 (pancreas)
Experimental: as §1

A375 (melanoma) = assay: MTT in vitro cytotoxic activity assay, A375; type: cell-based; details: Homo sapiens, A-375, 96 h incubation, read-out: Cytotoxicity activity, A375 (melanoma)
Experimental: as §1

MDA-MB-231 (breast) = assay: MTT in vitro cytotoxic activity assay, MDA-MB-231; type: cell-based; details: Homo sapiens, 96 h incubation, read-out: Cytotoxicity activity, MDA-MB-231 (breast)
Experimental: as §1

HL60 (leukemia) = assay: MTT in vitro cytotoxic activity assay, HL60; type: cell-based; details: Homo sapiens, HL-60, 96 h incubation, read-out: Cytotoxicity activity, HL60 (leukemia)
Experimental: as §1

H1299 (lung) = assay: MTT in vitro cytotoxic activity assay, H1299; type: cell-based; details: Homo sapiens, NCI-H1299, 96 h incubation, read-out: Cytotoxicity activity, H1299 (lung)
Experimental: as §1

HCT116 (colon) = assay: MTT in vitro cytotoxic activity assay, HCT116; type: cell-based; details: Homo sapiens, HCT-116, 96 h incubation, read-out: Cytotoxicity activity, HCT116 (colon)
Experimental: as §1

MCF7 (breast) = assay: MTT in vitro cytotoxic activity assay, MCF7; type: cell-based; details: Homo sapiens, 96 h incubation, read-out: Cytotoxicity activity, MCF7 (breast)
Experimental: as §1

IC50 [1]: 0.038 µM
Compound: O=C1Nc2c(nc(Nc3cccc(Cl)c3)c3cc(C(=O)O)ccc23)C1=O [Compound 1, 5-((3-chlorophenyl)amino)-2,3-dioxo-2,3-dihydro-1H-pyrrolo[3,2-c]isoquinoline-7-carboxylic acid]
IC50 (PC3 (prostate)): 1.1 µM | in vitro anti-proliferative / anticancer activity against human cancer cell lines (in words) [2]: promising in vitro anti-proliferative activity | IC50 (MIAPaCa-2 (pancreas)): 1.1 µM | IC50 (A375 (melanoma)): 3.1 µM | IC50 (MDA-MB-231 (breast)): 3.8 µM | IC50 (HL60 (leukemia)): 3.9 µM | IC50 (H1299 (lung)): 1.7 µM | IC50 (HCT116 (colon)): 1.5 µM | IC50 (MCF7 (breast)): 5.4 µM
